In patent US20100267561A1, “HERBICIDAL PYRIDAZINONE DERIVATIVES” (priority 2007, published 2010):

Key:
Assay type in all cases: in vivo
[1] = test system: cocklebur (Xanthium strumarium); assay: Test B pre-/postemergence plant response; details: for Cocklebur plant response rating: 8 g ai/ha
How it was run: (§1)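 Seeds were sown and sprayed preemergence, while plants at 2 to 18 cm (1- to 4-leaf stage) got postemergence sprays. Compounds were formulated in a non-phytotoxic solvent mixture with surfactant. After 13 to 15 days in a greenhouse, injury was rated visually against untreated controls, 0 (no effect) to 100 (complete control).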

[2] = test system: large crabgrass (Digitaria sanguinalis); assay: Test B pre-/postemergence plant response; details: for Crabgrass, Large plant response rating: 8 g ai/ha
How it was run: as §1

[3] = test system: wheat (Triticum aestivum); assay: Test B pre-/postemergence plant response; details: for Wheat plant response rating: 8 g ai/ha
How it was run: as §1

[4] = test system: common (oilseed) sunflower (Helianthus annuus); assay: Test B pre-/postemergence plant response; details: Preemergence
How it was run: as §1

[5] = test system: yellow nutsedge (Cyperus esculentus); assay: Test B pre-/postemergence plant response; details: for Nutsedge, Yellow plant response rating: 8 g ai/ha
How it was run: as §1

[6] = test system: common ragweed (Ambrosia elation); assay: Test B pre-/postemergence plant response; details: for Ragweed plant response rating: 8 g ai/ha
How it was run: as §1

[7] = test system: goosegrass (Eleusine indica); assay: Test B pre-/postemergence plant response; details: for Goosegrass plant response rating: 8 g ai/ha
How it was run: as §1

[8] = test system: blackgrass (Alopecurus myosuroides); assay: Test B pre-/postemergence plant response; details: for Blackgrass plant response rating: 8 g ai/ha
How it was run: as §1

[9] = test system: johnsongrass (Sorghum halepense); assay: Test B pre-/postemergence plant response; details: for Johnsongrass plant response rating: 8 g ai/ha
How it was run: as §1

[10] = test system: catchweed bedstraw (Galium aparine); assay: Test B pre-/postemergence plant response; details: Preemergence
How it was run: as §1

[11] = test system: giant foxtail (Setaria faberii); assay: Test B pre-/postemergence plant response; details: for Foxtail, Giant plant response rating: 8 g ai/ha
How it was run: as §1

[12] = test system: lambsquarters (Chenopodium album); assay: Test B pre-/postemergence plant response; details: for Lambsquarters plant response rating: 8 g ai/ha
How it was run: as §1

[13] = test system: wild oat (Avena fatua); assay: Test B pre-/postemergence plant response; details: for Oat, Wild plant response rating: 8 g ai/ha
How it was run: as §1

[14] = test system: winter barley (Hordeum vulgare); assay: Test B postemergence plant response; details: for Plant response rating, Barley: Postemergence, scale 0 to 100, 0 no effect, 100 complete control
How it was run: (§2)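 Scoring: 0 means no effect and 100 complete control, judged by eye against controls after 13–15 days under greenhouse conditions following postemergence application at 2–18 cm plant height.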

[15] = test system: windgrass (Apera spica-venti); assay: Test B postemergence plant response; details: for Plant response rating, Windgrass: Postemergence
How it was run: as §2

[16] = Postemergence, 16 g ai/ha, scale 0 to 100
[17] = Postemergence, 31 g ai/ha, scale 0 to 100, 0 no effect, 100 complete control
[18] = Postemergence, 62 g ai/ha, scale 0 to 100, 0 no effect, 100 complete control
[19] = Preemergence, 16 g ai/ha, scale 0 to 100 (0 no effect, 100 complete control)
[20] = Preemergence, 31 g ai/ha, 0 to 100 scale, 0 no effect, 100 complete control
[21] = Preemergence, 62 g ai/ha, scale 0 to 100
[22] = 16 g ai/ha, scale 0 to 100 (0 no effect, 100 complete control)
[23] = 31 g ai/ha, 0 to 100 scale, 0 no effect, 100 complete control
[24] = 8 g ai/ha, postemergence, 0-100 scale

Cc1cc(-c2ccc(Cl)cc2)nn1-c1c(OS(C)(=O)=O)cnn(C)c1=O [Compound 36]
80: Goosegrass plant response rating ([7]; Preemergence, scale 0 to 100) | Plant response rating, Blackgrass [8, 18] | Plant response rating, Blackgrass [8, 19] | Blackgrass plant response rating ([8]; Preemergence, scale 0 to 100)
60: Plant response rating, Wheat [3, 21] | Plant response rating, Foxtail, Giant [11, 17] | Plant response rating, Foxtail, Giant [11, 18] | Plant response rating, Oat, Wild [13, 17]
50: Crabgrass, Large plant response rating ([2]; postemergence, 0-100 scale) | Plant response rating, Blackgrass [8, 16] | Plant response rating, Blackgrass [8, 17] | Plant response rating, Johnsongrass [9, 16] | Plant response rating, Oat, Wild [13, 16] | Plant response rating, Oat, Wild [13, 19]
40: Plant response rating, Johnsongrass [9, 20]
15: Plant response rating, Barley ([14]; 31 g ai/ha) | Plant response rating, Barley ([14]; 62 g ai/ha)
35: Plant response rating, Foxtail, Giant [11, 16]
5: Plant response rating, Wheat [3, 16] | Plant response rating, Wheat [3, 20]
95: Plant response rating, Johnsongrass [9, 17] | Plant response rating, Oat, Wild [13, 21]
65: Plant response rating, Crabgrass, Large [2, 16] | Plant response rating, Windgrass ([15]; 62 g ai/ha, scale 0 to 100, 0 no effect, 100 complete control)
0: Cocklebur plant response rating ([1]; postemergence, 0-100 scale) | Plant response rating, Cocklebur [1, 16] | Plant response rating, Cocklebur [1, 17] | Plant response rating, Cocklebur [1, 18] | Plant response rating, Cocklebur [1, 19] | Plant response rating, Cocklebur [1, 20] | Plant response rating, Cocklebur [1, 21] | Cocklebur plant response rating ([1]; Preemergence, scale 0 to 100) | Wheat plant response rating ([3]; postemergence, 0-100 scale) | Plant response rating, Wheat [3, 19] | Wheat plant response rating ([3]; Preemergence, scale 0 to 100) | Plant response rating, Sunflower [4, 22] | Plant response rating, Sunflower [4, 23] | Plant response rating, Sunflower ([4]; 62 g ai/ha, scale 0 to 100) | Sunflower plant response rating ([4]; 8 g ai/ha, scale 0 to 100) | Nutsedge, Yellow plant response rating ([5]; postemergence, 0-100 scale) | Plant response rating, Nutsedge, Yellow [5, 16] | Plant response rating, Nutsedge, Yellow [5, 17] | Plant response rating, Nutsedge, Yellow [5, 18] | Plant response rating, Nutsedge, Yellow [5, 19] | Plant response rating, Nutsedge, Yellow [5, 20] | Plant response rating, Nutsedge, Yellow [5, 21] | Nutsedge, Yellow plant response rating ([5]; Preemergence, scale 0 to 100) | Ragweed plant response rating ([6]; postemergence, 0-100 scale) | Plant response rating, Ragweed [6, 16] | Plant response rating, Ragweed [6, 17] | Plant response rating, Ragweed [6, 18] | Plant response rating, Ragweed [6, 19] | Plant response rating, Ragweed [6, 20] | Plant response rating, Ragweed [6, 21] | Ragweed plant response rating ([6]; Preemergence, scale 0 to 100) | Goosegrass plant response rating ([7]; postemergence, 0-100 scale) | Blackgrass plant response rating ([8]; postemergence, 0-100 scale) | Johnsongrass plant response rating ([9]; postemergence, 0-100 scale) | Johnsongrass plant response rating ([9]; Preemergence, scale 0 to 100) | Plant response rating, Galium [10, 22] | Plant response rating, Galium [10, 23] | Plant response rating, Galium ([10]; 62 g ai/ha, scale 0 to 100) | Galium plant response rating ([10]; 8 g ai/ha, scale 0 to 100) | Foxtail, Giant plant response rating ([11]; postemergence, 0-100 scale) | Lambsquarters plant response rating ([12]; postemergence, 0-100 scale) | Plant response rating, Lambsquarters [12, 16] | Plant response rating, Lambsquarters [12, 17] | Plant response rating, Lambsquarters [12, 18] | Plant response rating, Lambsquarters [12, 19] | Plant response rating, Lambsquarters [12, 20] | Plant response rating, Lambsquarters [12, 21] | Lambsquarters plant response rating ([12]; Preemergence, scale 0 to 100) | Oat, Wild plant response rating ([13]; postemergence, 0-100 scale) | Oat, Wild plant response rating ([13]; Preemergence, scale 0 to 100) | Barley plant response rating [14, 24] | Plant response rating, Barley ([14]; 16 g ai/ha) | Windgrass plant response rating [15, 24] | Plant response rating, Windgrass ([15]; 16 g ai/ha, scale 0 to 100)
98: Plant response rating, Crabgrass, Large [2, 19] | Crabgrass, Large plant response rating ([2]; Preemergence, scale 0 to 100)
100: Plant response rating, Crabgrass, Large [2, 18] | Plant response rating, Crabgrass, Large [2, 20] | Plant response rating, Crabgrass, Large [2, 21] | Plant response rating, Goosegrass [7, 16] | Plant response rating, Goosegrass [7, 17] | Plant response rating, Goosegrass [7, 18] | Plant response rating, Goosegrass [7, 19] | Plant response rating, Goosegrass [7, 20] | Plant response rating, Goosegrass [7, 21] | Plant response rating, Blackgrass [8, 20] | Plant response rating, Blackgrass [8, 21] | Plant response rating, Johnsongrass [9, 18] | Plant response rating, Johnsongrass [9, 21] | Plant response rating, Foxtail, Giant [11, 19] | Plant response rating, Foxtail, Giant [11, 20] | Plant response rating, Foxtail, Giant [11, 21] | Foxtail, Giant plant response rating ([11]; Preemergence, scale 0 to 100)
85: Plant response rating, Wheat [3, 18]
90: Plant response rating, Crabgrass, Large [2, 17] | Plant response rating, Oat, Wild [13, 18] | Plant response rating, Oat, Wild [13, 20]
